The results in this text go back to patent US20110081298A1, “RATIOMETRIC BIOLUMINESCENT SENSOR FOR IMAGINING OXIDATIVE STRESS” (priority 2009, published 2011).

In experiment [1] the test system is HeLa-fR cells. Nature of the experiment: RLuc8/fLuc bioluminescence and RLuc8:fLuc ratio in HeLa-fR cells (Dual-Glo). The experiment is classed as cell-based, human. The conditions noted are these: for RLuc8:fLuc ratio of STS-treated cells with inhibitor/scavenger: inhibitor 1 hour before 10 μM STS for 24 hours, working concentrations of Table 7; for RLuc8:fLuc ratio, increasing doses of inhibitor/scavenger: pretreated 1 hour prior to 10 μM STS, 24 hr; for RLuc8:fLuc bioluminescent ratio: HeLa-fR cells treated with the stress/cell death inducer alone. On the procedure:
To induce cellular stress, HeLa cells were treated with Staurosporine (STS), hydrogen peroxide, or hypoxanthine and xanthine oxidase for 0 to 24 hours at concentrations indicated in Table 7. Stressed and unstressed cells were also incubated with inhibitors that target various intracellular protein degradation/modification pathways. The specific compounds/proteins that were utilized as inhibitors and the respective final working concentrations are also listed in Table 7. Inhibitors were added to cells 1-hr prior to adding inducers of cellular stress and left in the media for the duration of the treatment. Analogous controls were conducted in the absence of stress inducers.
(§1) To induce caspase dependent PCD, cells were treated with staurosporine (STS), Doxorubicin (DOX), or camptothecin (CPT) (Sigma, St. Louis, Mo.) in complete medium at indicated concentrations and time points. To induce caspase-independent PCD, cells were treated with sodium selenite (SSe, MP Biomedicals, Solon, Ohio) or resveratrol (Res, Enzo Life Sciences, Plymouth Meeting, Pa.) in complete medium at indicated concentrations and time points. In studies where allopurinol (Allo, MP Biomedicals) is used as an inhibitor, it was added at a final concentration of 100 μM to cells in complete medium for 1 hour prior to the addition of the death-inducing drugs and remained in the medium throughout the study.
(§2) Unless otherwise noted, bioluminescence assays were performed 24 hours after plating 10,000 HeLa-fR cells/well in a white-walled 96 well tissue culture plate (BD Biosciences, Franklin Lakes, N.J., USA).

The subject of a further experiment is MCF7-fR cells. Kind of experiment: RLuc8:fLuc ratio in MCF7-fR cells (Dual-Glo). The experiment is classed as cell-based, human. As to the method: as §1, §2
The test system of the next experiment is 293T/17-fR cells. Kind of experiment: RLuc8:fLuc ratio in 293T/17-fR cells (Dual-Glo). Format: cell-based, human. As to conditions: STS-treated 293T/17 cells.
For experiment [2], the system named is HeLa-fR cells. Nature of the experiment: TUNEL assay for DNA fragmentation, HeLa-fR cells. Format: cell-based, human. On the procedure: DNA Fragmentation: PCD was induced (as described above) 24 hours after plating 300,000 cells/well in 6 well tissue culture plates (BD Biosciences). After indicated treatment times, TUNEL assays for DNA fragmentation were performed using the TUNEL/ApoBRDU assay kit (Invitrogen) according to the manufacturer's protocol. Percent DNA fragmentation was determined using flow cytometry on a Guava EasyCyte flow cytometer (Guava Technologies, Hayward, Calif.). Analysis of flow cytometry data was performed using FlowJo software (Treestar, Ashland, Oreg.).

For experiment [3], the system named is intracellular H2O2. Kind of experiment: Intracellular H2O2 by CM-H2DCFDA, HeLa-fR cells. The experiment is classed as cell-based, human. The conditions noted are these: for intracellular H2O2 (CM-H2DCFDA fluorescence) with inhibitor/scavenger: STS-treated HeLa-fR cells. On the procedure: Catalase and Allopurinol: HeLa-fR cells were plated at a density of 120,000 cells per well of a 12 well tissue culture plate (BD Biosciences). 24 hours later, the cells were incubated with 10 μM CM-H2DCFDA (Invitrogen) for 30 minutes at 37° C. Cells were then treated with PBS (pH 7.4), 50 U/mL catalase or 100 μM allopurinol for one hour. PBS (pH 7.4) or 10 μM STS was subsequently added to the cells, and all compounds remained on the cells for 24 hours. Intracellular H2O2 levels were determined by subjecting the cells to flow cytometry using a Guava EasyCyte (Guava Technologies). Analysis of flow cytometry data was accomplished using FlowJo software (Treestar).

Experiment [4] deals with intracellular H2O2. Nature of the experiment: Intracellular H2O2 by CM-H2DCFDA, MCF7-fR cells. The experiment is classed as cell-based, human.
Experiment [5] has as its system HeLa-fR cells. Nature of the experiment: Western blot of fLuc and RLuc8 protein, HeLa-fR cells. Format: cell-based, human. As to conditions: STS-treated cells pretreated with the inhibitor/scavenger. As to the method:
Following indicated culture conditions, HeLa-fR cells were washed 3 times with 1×PBS (pH7.4). Proteins were extracted using RIPA extraction buffer (50 mM Tris HCL, pH 7.4, 1% Triton X-100, 0.25% Na-deoxycholate, 150 mM NaCl, 1 mM EDTA and a Complete Mini Protease Inhibitor Cocktail Tablet (Roche)) at 4° C. for 30 minutes with constant agitation. Total protein concentrations were measured using a BCA assay (Pierce, Rockford, Ill., USA). […] Proteins separated by electrophoresis were transferred to nitrocellulose membranes in 1× Transfer Buffer (Bio-Rad) at 15V for 30 minutes. Membranes were blocked in Blocking Buffer for Fluorescent Western Blotting (Rockland Immunochemicals, Gilbertsville, Pa., USA) for 60 minutes. The membranes were incubated with anti-fLuc (Sigma), anti-rLuc (Millipore, Billerica, Mass.) or anti-β-actin (Abcam, Cambridge, Mass.) primary antibodies in blocking buffer overnight. […] The fluorescent signal from the membranes was imaged using the Odyssey Infrared Imaging System (Li-Cor Biosciences, Lincoln, Nebr., USA).

In the next experiment the test system is HeLa-fR tumor xenografts. Nature of the experiment: Bioluminescence imaging of HeLa-fR tumor xenografts in nude mice. The experiment is classed as in vivo. As to conditions: intratumoral, 24 hours.
The subject of a further experiment is caspases 3 and 7. Nature of the experiment: Caspase-Glo 3/7 assay, HeLa-fR cells. The experiment is classed as cell-based, human. On the procedure:
Caspase Activity: PCD was induced (as described above) 24 hours after plating 10,000 cells/well in white-walled 96 well tissue culture plates (BD Biosciences). After indicated treatment times, the Caspase 3/7-Glo Assay (Promega) was performed according to the manufacturer's protocol and bioluminescence measurements were obtained from and Infinite 200 plate reader (Tecan). All values were normalized to controls (i.e. pre-treatment values).

“Also recorded” adds a separate entry of the source. Residues, ends and D or L forms follow the SMILES beside them. *: point of attachment. Cbz = O=C(OCc1ccccc1)*; CH2F = FC*

Source text for HeLa-fR tumor xenografts: Five week old female nude mice (Charles River Laboratories International LLC, Wilmington, Mass.) were obtained and given free access to food and water. […] For tumor induction, 2.5×10^6 HeLa-fR cells were resuspended in PBS (pH 7.4) and subcutaneously implanted in the lower right flank of lightly anesthetized mice (1% isoflurane/oxygen mixture). Once the tumors reached ˜1 cm in diameter, each group was imaged prior to any inhibitor/drug treatment. Briefly, the animals were i.p. injected with 200 μL of sterile 15 mg/mL luciferin (Biosynth, Itasca, Ill.) in PBS (pH 7.4) and imaged using an IVIS Lumina II (Caliper Life Sciences, Hopkinton, Mass.) under anesthesia (2.5% isoflurane/oxygen mixture). The substrate was allowed to clear for 3 hours before the animals received an i.v. injection of 100 μL of 500 μg/mL sterile coelenterazine (NanoLight, Pinetop, Ariz.) in a 20/20/60 mixture of USP grade ethanol/propylene glycol/PBS and imaged using an IVIS Lumina II under anesthesia (2.5% isoflurane/oxygen mixture). Immediately following the second imaging session animals were divided into 4 groups (PBS/PBS, PBS/STS, Allo/PBS, Allo/STS) and the inhibitor (1 mM Allopurinol) or control (PBS, pH 7.4) was intratumorally injected. After 1 hour, the cell death inducer (500 μM STS) or control (PBS, pH 7.4) was intratumorally injected. All intratumoral injections were of a volume of 25 μL. 24 hours later, the animals were imaged in the same manner as stated previously.
All image analysis was performed using Living Image Software (Caliper Life Sciences). Images were first background subtracted (treating the animal body as the background) and automatic (5% threshold) ROIs were generated around each tumor. Bioluminescent counts were recorded and used in the ratio calculations. For each group, data was normalized to the day 1 ratio values.

For `CC(C)[C@H](NC(=O)OCc1ccccc1)C(=O)N[C@H](C=O)Cc1ccccc1` [Calpain Inhibitor III] (Cbz-Val-Phe-aldehyde), in the experiment with HeLa-fR cells [1] (HeLa-fR, no STS), the “RLuc8:fLuc ratio, inhibitor on untreated (−STS) cells” value was “increase in the Rluc8:fLuc ratio”. The “RLuc8:fLuc ratio of STS-treated cells with inhibitor/scavenger” value (shortened to “RLuc8:fLuc ratio … with inhibitor/scavenger”) in the experiment on HeLa-fR cells [1] is given as “none of these inhibitors significantly affected”.
In the case of `CC(C)C[C@@H](C=O)NC(=O)[C@H](CC(C)C)NC(=O)[C@H](CC(C)C)NC(=O)OCc1ccccc1` [MG-132] (Cbz-Leu-Leu-Leu-aldehyde), the “RLuc8:fLuc ratio … with inhibitor/scavenger” value in the experiment with HeLa-fR cells [1] is listed as “increase in the RLuc8:fLuc ratio”.
For the compound `CC1(C)CC(O)CC(C)(C)N1[O]` [TEMPOL], in the experiment with HeLa-fR cells [1], the “RLuc8:fLuc ratio … with inhibitor/scavenger” value is “none of the superoxide scavengers significantly reduced”.
For `NCCNCCNCCNCCN` [TEPA, tetraethylenepentamine], the “RLuc8:fLuc ratio … with inhibitor/scavenger” value with HeLa-fR cells [1] is given as “did not reduce the Rluc8:fLuc ratio; also recorded: slight increase in Rluc8:fLuc ratio”.
For `O=S(=O)(O)c1cc(O)c(O)c(S(=O)(=O)O)c1` [Tiron], the “RLuc8:fLuc ratio … with inhibitor/scavenger” value with HeLa-fR cells [1] is “none of the superoxide scavengers significantly reduced”.
Consider `Oc1ncnc2[nH]ncc12` [allopurinol], for which the “protective effect on fLuc” value with HeLa-fR cells [1] (HeLa cells treated with camptothecin and doxorubicin) was “protective effect of allopurinol on fLuc is also evident”; in the experiment on MCF7-fR cells (STS-treated MCF7 cells), “protective effect of allopurinol on fLuc is also evident”; with 293T/17-fR cells it was “protective effect of allopurinol on fLuc is also evident”. Besides, the “RLuc8:fLuc ratio, allopurinol prior to SSe vs SSe alone” value in the experiment on HeLa-fR cells [1] (HeLa-fR) is listed as “decreased significantly (p<0.05)”. In addition, the “RLuc8:fLuc ratio … with inhibitor/scavenger” value in the experiment on HeLa-fR cells [1] is on record as “significant reduction (p<0.01)”. Besides, the “RLuc8:fLuc ratio, increasing doses of inhibitor/scavenger” value in the experiment with HeLa-fR cells [1] is on record as “reducing the Rluc8:fLuc ratio, in a dose-dependent manner”. The “RLuc8:fLuc ratio, allopurinol prior to resveratrol vs resveratrol alone” value with MCF7-fR cells (MCF7-fR) was “significantly reduced (p<0.01)”. In the experiment with HeLa-fR cells [2] (100 μM allopurinol 1 hour prior to 55 μM SSe for 24 hours), the “DNA fragmentation levels vs PBS-pretreated controls” value is reported as “remained unchanged”. For the same compound, the “protection against cell death (TUNEL)” value in the experiment on HeLa-fR cells [2] (HeLa-fR pretreated with allopurinol prior to STS) is on record as “did not provide protection against cell death”. Further, the “intracellular H2O2 levels, allopurinol prior to SSe vs SSe alone” value with intracellular H2O2 [3] (HeLa-fR) was “decreased significantly (p<0.05)”. The “intracellular H2O2 (CM-H2DCFDA fluorescence) with inhibitor/scavenger” value (shortened to “intracellular H2O2 … with inhibitor/scavenger”) with intracellular H2O2 [3] was “decrease in CM-H2DCFDA fluorescence”. For the same compound, the “H2O2 levels, allopurinol prior to resveratrol vs resveratrol alone” value in the experiment on intracellular H2O2 [4] is recorded as “significantly reduced (p<0.01)”. Further, in the experiment on HeLa-fR cells [5], the “fLuc protein level vs STS without inhibitor” value was “higher levels of fLuc protein”. Further, in the experiment with HeLa-fR tumor xenografts, the “RLuc8:fLuc ratio, Allo/PBS vs PBS/PBS groups” value is recorded as “decreased slightly”. Besides, in the experiment on HeLa-fR tumor xenografts (inhibitor 1 hour before STS), the “RLuc8:fLuc ratio, Allo/STS vs PBS/STS groups” value is reported as “significant reduction in the RLuc8:fLuc ratio (p<0.05)”.
For the compound `Cl.N` [ammonium chloride], in the experiment on HeLa-fR cells [1], the “RLuc8:fLuc ratio … with inhibitor/scavenger” value is reported as “none of these inhibitors significantly affected”.
In the case of `CC(=O)Oc1ccccc1C(=O)O` [aspirin, acetylsalicylic acid], in the experiment on HeLa-fR cells [1], the “RLuc8:fLuc ratio … with inhibitor/scavenger” value is given as “significant reduction (p<0.01)” and the “RLuc8:fLuc ratio, increasing doses of inhibitor/scavenger” value is given as “reducing the Rluc8:fLuc ratio, in a dose-dependent manner”. Further, the “intracellular H2O2 … with inhibitor/scavenger” value in the experiment with intracellular H2O2 [3] was “decrease in CM-H2DCFDA fluorescence”. For the same compound, the “fLuc protein level vs STS without inhibitor” value in the experiment on HeLa-fR cells [5] is on record as “higher levels of fLuc protein”.
Consider `CC[C@@]1(O)C(=O)OCc2c1cc1n(c2=O)Cc2cc3ccccc3nc2-1` [camptothecin], for which, in the experiment on HeLa-fR cells [1], the “RLuc8:fLuc bioluminescent ratio” value was “dose- and time-dependent increase”. Also, the “caspase activity / caspase dependence of cell death” value in the experiment on caspases 3 and 7 is on record as “caspase-dependent”.
As to `COc1cccc2c1C(=O)c1c(O)c3c(c(O)c1C2=O)C[C@@](O)(C(=O)CO)C[C@@H]3O[C@H]1C[C@H](N)[C@H](O)[C@H](C)O1` [doxorubicin, Doxorubicin], the “RLuc8:fLuc bioluminescent ratio” value in the experiment on HeLa-fR cells [1] is “dose- and time-dependent increase”. The “caspase activity / caspase dependence of cell death” value with caspases 3 and 7 was “caspase-dependent”.
For the compound `CC[C@H](C)[C@H](NC(=O)[C@H]([C@@H](C)CC)N(C)C(C)=O)C(=O)N[C@H](C(=O)N[C@@H](CC(C)C)C(=O)[C@@]1(C)CO1)[C@@H](C)O` [epoxomicin], the “RLuc8:fLuc ratio … with inhibitor/scavenger” value in the experiment with HeLa-fR cells [1] was “increase in the RLuc8:fLuc ratio”.
The same measure, in the same setting: the result for `CC(=O)N[C@@H](CSC(=O)[C@]1([C@@H](O)C(C)C)NC(=O)[C@H](C)[C@@H]1O)C(=O)O` [lactacystin] reads “increase in the RLuc8:fLuc ratio”; that for `OC[C@@H](O)[C@@H](O)[C@H](O)[C@H](O)CO` [mannitol], “did not reduce the Rluc8:fLuc ratio”.
Same read-out and setting: under `COC(=O)C[C@H](NC(=O)[C@H](C)NC(=O)[C@@H](NC(=O)OCc1ccccc1)C(C)C)C(=O)CF` [z-vad-fmk] (Cbz-Val-Ala-Asp(OMe)-CH2F) stands “none of these inhibitors significantly affected”; under MnTMPyP, “none of the superoxide scavengers significantly reduced”.
On the same count and under the same terms, the result for Pepstatin A reads “none of these inhibitors significantly affected”.
As to catalase, in the experiment on HeLa-fR cells [1], the “RLuc8:fLuc ratio … with inhibitor/scavenger” value was “significant reduction (p<0.01)” and the “RLuc8:fLuc ratio, increasing doses of inhibitor/scavenger” value is reported as “reducing the Rluc8:fLuc ratio, in a dose-dependent manner”. Moreover, the “intracellular H2O2 … with inhibitor/scavenger” value with intracellular H2O2 [3] is given as “decrease in CM-H2DCFDA fluorescence”. In addition, the “fLuc protein level vs STS without inhibitor” value in the experiment on HeLa-fR cells [5] is given as “higher levels of fLuc protein”.
